Measured values published in patent US20240109853A1 (Shanghai Yao Yuan Biotechnology Co., Ltd., priority 2020, published 2024).
pIC50: −log10 of the molar value.

Experiments:
[1] = target: ALPK1 (Homo sapiens (Human), UniProt Q96QP1); test: ALPK1 in vitro kinase assay (HTRF of TIFA phosphorylation); assay type: biochemical
[2] = system: ALPK1-dependent NFκB reporter gene activation in HEK293 cells stably expressing an NF-kB reporter (G9 cells); test: NFκB gene reporter alkaline phosphatase assay; assay type: cell-based; settings: Homo sapiens, HEK293; read-out: NFkB assay IC50
Outline: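 Inhibition of ALPK1-driven NF-κB activation: compounds added to reporter-bearing HEK293 (G9) cells 30 min before the agonist D-glycero-D-manno-6-fluoro-heptose-1β-S-ADP. Secreted phosphatase detected by pNPP colorimetry, with IC50 derived by logistic curve fitting.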

Sequence of ALPK1 (Q96QP1 whole entry): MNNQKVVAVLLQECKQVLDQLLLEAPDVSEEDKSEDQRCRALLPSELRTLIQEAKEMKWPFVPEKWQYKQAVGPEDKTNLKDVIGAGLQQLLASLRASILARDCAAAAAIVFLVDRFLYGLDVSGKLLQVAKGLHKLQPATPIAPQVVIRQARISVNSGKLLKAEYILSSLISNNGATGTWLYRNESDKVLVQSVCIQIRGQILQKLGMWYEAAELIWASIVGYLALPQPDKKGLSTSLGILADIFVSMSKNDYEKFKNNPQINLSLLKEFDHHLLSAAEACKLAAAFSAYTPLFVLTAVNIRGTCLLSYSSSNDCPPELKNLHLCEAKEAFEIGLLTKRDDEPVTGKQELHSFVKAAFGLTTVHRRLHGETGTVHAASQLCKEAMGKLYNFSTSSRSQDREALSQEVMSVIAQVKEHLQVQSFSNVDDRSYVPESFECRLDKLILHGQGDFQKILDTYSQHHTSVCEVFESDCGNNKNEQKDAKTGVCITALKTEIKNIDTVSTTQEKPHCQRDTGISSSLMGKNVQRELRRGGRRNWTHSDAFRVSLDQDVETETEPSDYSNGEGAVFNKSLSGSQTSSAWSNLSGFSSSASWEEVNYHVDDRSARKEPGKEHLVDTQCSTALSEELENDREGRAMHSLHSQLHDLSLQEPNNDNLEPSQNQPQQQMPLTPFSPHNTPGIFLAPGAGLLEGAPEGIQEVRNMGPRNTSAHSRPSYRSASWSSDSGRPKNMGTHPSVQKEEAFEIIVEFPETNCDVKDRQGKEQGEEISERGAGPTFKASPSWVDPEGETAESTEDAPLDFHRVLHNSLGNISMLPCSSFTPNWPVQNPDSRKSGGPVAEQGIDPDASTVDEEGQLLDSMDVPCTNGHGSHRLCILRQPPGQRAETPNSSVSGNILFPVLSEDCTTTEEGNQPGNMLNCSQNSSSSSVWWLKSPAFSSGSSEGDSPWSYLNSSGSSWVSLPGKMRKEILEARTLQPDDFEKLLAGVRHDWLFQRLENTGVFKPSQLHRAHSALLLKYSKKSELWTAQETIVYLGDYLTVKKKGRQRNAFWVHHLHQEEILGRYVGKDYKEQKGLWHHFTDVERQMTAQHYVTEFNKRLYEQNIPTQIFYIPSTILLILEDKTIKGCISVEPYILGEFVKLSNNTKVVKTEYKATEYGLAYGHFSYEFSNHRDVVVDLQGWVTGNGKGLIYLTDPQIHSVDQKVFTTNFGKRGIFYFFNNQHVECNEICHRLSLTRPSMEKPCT

Structure (SMILES)	pIC50 [1]	pIC50 [2]
CCNC(=O)Nc1nc(C(C)(C)c2ccc(Br)cc2)cs1 [Example A241, 1-(4-(2-(4-bromophenyl)propan-2-yl)thiazol-2-yl)-3-ethylurea]	7.01	5.47
CCNC(=O)Nc1nc(C(C)(C)c2ccc(OC)cc2)cs1 [Example A242, 1-ethyl-3-(4-(2-(4-methoxyphenyl)propan-2-yl)thiazol-2-yl)urea]	7.38	6.01
C#CC(C)(c1ccc(Cl)cc1)c1csc(NC(=O)NCCS(N)(=O)=O)n1 (stereo not shown) [Example A243, 2-(3-(4-(2-(4-chlorophenyl)but-3-yn-2-yl)thiazol-2-yl)ureido)ethane-1-sulfonamide]	7.64	6.23
C#C[C@](C)(c1ccc(Cl)cc1)c1csc(NC(=O)N2CC(c3ccc(N4CCNCC4)c(F)c3)C2)n1 [Example A246, (R)-N-(4-(2-(4-chlorophenyl)but-3-yn-2-yl)thiazol-2-yl)-3-(3-fluoro-4-(piperazin-1-yl)phenyl)azetidine-1-carboxamide]	7.54	5.80
C#C[C@](C)(c1ccc(Cl)cc1)c1csc(NC(=O)NCCC(C)(C)O)n1 [Example A250, (R)-1-(4-(2-(4-chlorophenyl)but-3-yn-2-yl)thiazol-2-yl)-3-(3-hydroxy-3-methylbutyl)urea]	6.38	5.93
C#CC(C)(c1ccc(Cl)cc1)c1csc(NC(=O)N(CCO)CCO)n1 (stereo not shown) [Example A253, 3-(4-(2-(4-chlorophenyl)but-3-yn-2-yl)thiazol-2-yl)-1,1-bis(2-hydroxyethyl)urea]	6.76	5.52
C#CC(C)(c1ccc(Cl)cc1)c1csc(NC(=O)N(C)CCO)n1 (stereo not shown) [Example A254, 3-(4-(2-(4-chlorophenyl)but-3-yn-2-yl)thiazol-2-yl)-1-(2-hydroxyethyl)-1-methylurea]	6.26	5.68
C#C[C@@](C)(c1ccc(OC)cc1)c1csc(NC(=O)N2CC(CO)C2)n1 [Example A256, (S)-3-(hydroxymethyl)-N-(4-(2-(4-methoxyphenyl)but-3-yn-2-yl)thiazol-2-yl)azetidine-1-carboxamide]	6.56	4.84
C#C[C@](C)(c1ccc(Cl)cc1)c1csc(NC(=O)N2CC(CO)C2)n1 [Example A257, (R)-N-(4-(2-(4-chlorophenyl)but-3-yn-2-yl)thiazol-2-yl)-3-(hydroxymethyl)azetidine-1-carboxamide]	5.81	5.70
C#C[C@@](C)(c1ccc(Cl)cc1)c1csc(NC(=O)N2CC(CO)C2)n1 [Example A258, (S)-N-(4-(2-(4-chlorophenyl)but-3-yn-2-yl)thiazol-2-yl)-3-(hydroxymethyl)azetidine-1-carboxamide]	6.45	5.88
C#CC(C)(c1ccc(Cl)cc1)c1csc(NC(=O)N2CC(CN3CCNCC3)C2)n1 (stereo not shown) [Example A259, N-(4-(2-(4-chlorophenyl)but-3-yn-2-yl)thiazol-2-yl)-3-(piperazin-1-ylmethyl)azetidine-1-carboxamide]	7.32	6.36
C#CC(C)(c1ccc(Cl)cc1)c1csc(NC(=O)NCc2ccc(N3CCNCC3)c(F)c2)n1 (stereo not shown) [Example A262, 1-(4-(2-(4-chlorophenyl)but-3-yn-2-yl)thiazol-2-yl)-3-(3-fluoro-4-(piperazin-1-yl)benzyl)urea]	7.89	6.17
C#CC(C)(c1ccc(Cl)cc1)c1csc(NC(=O)N2CC(CN3CCC(N)CC3)C2)n1 (stereo not shown) [Example A263, 3-((4-aminopiperidin-1-yl)methyl)-N-(4-(2-(4-chlorophenyl)but-3-yn-2-yl)thiazol-2-yl)azetidine-1-carboxamide]	7.41	5.84
C#CC(C)(c1ccc(Cl)cc1)c1csc(NC(=O)N2CCC(CO)CC2)n1 (stereo not shown) [Example A264, N-(4-(2-(4-chlorophenyl)but-3-yn-2-yl)thiazol-2-yl)-4-(hydroxymethyl)piperidine-1-carboxamide]	5.86	5.55
C#CC(C)(c1ccc(Cl)cc1)c1csc(NC(=O)N2CCC(N)CC2)n1 (stereo not shown) [Example A265, 4-amino-N-(4-(2-(4-chlorophenyl)but-3-yn-2-yl)thiazol-2-yl)piperidine-1-carboxamide]	5.30	5.54
C#CC(C)(c1ccc(Cl)cc1)c1csc(NC(=O)NCC(C)(C)O)n1 (stereo not shown) [Example A268, 1-(4-(2-(4-chlorophenyl)but-3-yn-2-yl)thiazol-2-yl)-3-(2-hydroxy-2-methylpropyl)urea]	6.66	5.88
C#CC(C)(c1ccc(Cl)cc1)c1csc(NC(=O)N2CCC(O)C2)n1 (stereo not shown) [Example A269, N-(4-(2-(4-chlorophenyl)but-3-yn-2-yl)thiazol-2-yl)-3-hydroxypyrrolidine-1-carboxamide]	6.06	5.90
C#CC(C)(c1ccc(Cl)cc1)c1csc(NC(=O)N2CCC(CO)C2)n1 (stereo not shown) [Example A270, N-(4-(2-(4-chlorophenyl)but-3-yn-2-yl)thiazol-2-yl)-3-(hydroxymethyl)pyrroli-dine-1-carboxamide]	6.04	5.71

Structure (SMILES)	pIC50 [1]	pIC50 [2]
C#CC(C)(c1ccc(Cl)cc1)c1csc(NC(=O)NO)n1 (stereo not shown) [Example A271, 1-(4-(2-(4-chlorophenyl)but-3-yn-2-yl)thiazol-2-yl)-3-hydroxyurea]	6.31	6.14
C#CC(C)(c1ccc(Cl)cc1)c1nc(NC(=O)NCCO)sc1F (stereo not shown) [Example A279, 1-(4-(2-(4-chlorophenyl)but-3-yn-2-yl)-5-fluorothiazol-2-yl)-3-(2-hydroxyethyl)urea]	6.65	5.37
C#C[C@@](C)(c1ccc(F)cc1)c1csc(NC(=O)NCCO)n1 [Example A283, 1-(4-(2-(4-fluorophenyl)but-3-yn-2-yl)thiazol-2-yl)-3-(2-hydroxyethyl)urea]	6.26	5.77
C#C[C@](C)(c1ccc(F)cc1)c1csc(NC(=O)NCCS(N)(=O)=O)n1 [Example A284, 2-(3-(4-(2-(4-fluorophenyl)but-3-yn-2-yl)thiazol-2-yl)ureido)ethanesulfona-mide]	6.18	5.59
C#C[C@@](C)(c1ccc(F)cc1)c1csc(NC(=O)NCCS(N)(=O)=O)n1 [Example A285, 2-(3-(4-(2-(4-fluorophenyl)but-3-yn-2-yl)thiazol-2-yl)ureido)ethanesulfona-mide]	6.46	5.87
C#C[C@](C)(c1ccc(Cl)cc1)c1csc(NC(=O)NCCS(N)(=O)=O)n1 [Example A288, 2-(3-(4-(2-(4-chlorophenyl)but-3-yn-2-yl)thiazol-2-yl)ureido)ethanesulfona-mide]	6.57	5.92
C#C[C@@](C)(c1ccc(Cl)cc1)c1csc(NC(=O)NC2(CO)CC2)n1 [Example A295, 1-(4-(2-(4-chlorophenyl)but-3-yn-2-yl)thiazol-2-yl)-3-(1-(hydroxymethyl)cyclopro-pyl)urea]	6.28	5.75
C#C[C@](C)(c1ccc(Cl)cc1)c1csc(NC(=O)NC2(CO)CC2)n1 [Example A296]	6.94	5.32
[2H]c1sc(NC(=O)NCCO)nc1[C@@](C)(C#C)c1ccc(Cl)cc1 [Example A299, 1-(4-(2-(4-chlorophenyl)but-3-yn-2-yl)thiazol-2-yl)-3-(2-hydroxyethyl)urea]	7.24	6.34
[2H]c1sc(NC(=O)NCCO)nc1[C@](C)(C#C)c1ccc(Cl)cc1 [Example A300, 1-(4-(2-(4-chlorophenyl)but-3-yn-2-yl)thiazol-2-yl)-3-(2-hydroxyethyl)urea]	6.47	5.52
C#C[C@](C)(c1ccc(Cl)cc1)c1csc(NC(=O)NC[C@@H](O)CO)n1 [Example A301, 1-(4-(2-(4-chlorophenyl)but-3-yn-2-yl)thiazol-2-yl)-3-((R)-2,3-dihydroxypropyl)urea]	6.45	5.65
C#C[C@](C)(c1ccc(Cl)cc1)c1csc(NC(=O)NC[C@H](O)CO)n1 [Example A302, 1-(4-(2-(4-chlorophenyl)but-3-yn-2-yl)thiazol-2-yl)-3-((S)-2,3-dihydroxypropyl)urea]	6.38	5.69
C#C[C@@](C)(c1ccc(Cl)cc1)c1csc(NC(=O)NC[C@@H](O)CO)n1 [Example A303, 1-(4-(2-(4-chlorophenyl)but-3-yn-2-yl)thiazol-2-yl)-3-((R)-2,3-dihydroxypropyl)urea]	7.00	6.18
C#C[C@@](C)(c1ccc(Cl)cc1)c1csc(NC(=O)NC[C@H](O)CO)n1 [Example A304, 1-(4-(2-(4-chlorophenyl)but-3-yn-2-yl)thiazol-2-yl)-3-((S)-2,3-dihydroxypropyl)urea]	7.05	6.28
C#CC(C)(c1ccc(Cl)cc1)c1csc(NC(=O)N2CCC(O)CC2)n1 (stereo not shown) [Example A307, N-(4-(2-(4-chlorophenyl)but-3-yn-2-yl)thiazol-2-yl)-4-hydroxypiperidine-1-carboxamide]	5.69	5.50
C#CC(C)(c1ccc(Cl)cc1)c1csc(NC(=O)N2CCNCC2)n1 (stereo not shown) [Example A308, N-(4-(2-(4-chlorophenyl)but-3-yn-2-yl)thiazol-2-yl)piperazine-1-carboxamide]	5.81	5.27
C#CC(C)(c1ccc(Cl)cc1)c1csc(NC(=O)NC2CCN(Cc3ccc(C)cc3)C2)n1 (stereo not shown) [Example A309, 1-(4-(2-(4-chlorophenyl)but-3-yn-2-yl)thiazol-2-yl)-3-(1-(4-methylbenzyl)pyrrolidin-3-yl)urea]	5.85	5.39
